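Cells were grown in 96-well plates and exposed to each compound for 48 hours at five concentrations; endpoints were interpolated linearly between bracketing concentrations, or set to the highest concentration if not reached. GI50: concentration for 50% inhibition of growth. TGI: total growth inhibition.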
Columns and labels:
Assay in all cases: NCI-60 cell line screen, 48 h
SF-539 CNS = tested on: SF-539 CNS
CCRF-CEM leukemia = tested on: CCRF-CEM leukemia
K-562 leukemia = tested on: K-562 leukemia
MDA-MB-231 breast = tested on: MDA-MB-231 breast
SF-268 CNS = tested on: SF-268 CNS
DU-145 prostate = tested on: DU-145 prostate
MCF7 breast = tested on: MCF7 breast
HL-60(TB) leukemia = tested on: HL-60(TB) leukemia

Row | Compound | GI50 (SF-539 CNS) | TGI (SF-539 CNS) | GI50 (CCRF-CEM leukemia) | TGI (CCRF-CEM leukemia) | GI50 (K-562 leukemia) | TGI (K-562 leukemia) | GI50 (MDA-MB-231 breast) | TGI (MDA-MB-231 breast) | GI50 (SF-268 CNS) | TGI (SF-268 CNS) | GI50 (DU-145 prostate) | TGI (DU-145 prostate) | GI50 (MCF7 breast) | TGI (MCF7 breast) | GI50 (HL-60(TB) leukemia) | TGI (HL-60(TB) leukemia)
1 | C=CCN=C(N/N=C/c1ccc([N+](=O)[O-])o1)NS(=O)(=O)c1cc(C(=O)Nc2ccccc2)c(Cl)cc1SCC(N)=O | 18.8 µM | 41.5 µM | 5.73 µM | 27.6 µM | 9.16 µM | 49.8 µM | 14 µM | 50.8 µM | 29 µM | > 100 µM | 22.4 µM | 71.9 µM | 25.2 µM | 77.6 µM |  | 
2 | OCCCCC#Cc1ccccc1C#Cc1ccc(C(F)(F)F)cc1 | 19.7 µM | 37.2 µM | 19.6 µM | 44.1 µM | 18.2 µM | 43.6 µM | 18.6 µM | 34 µM | 22 µM | 48 µM | 15.8 µM | 31.7 µM | 33.3 µM | 85.6 µM | 17.7 µM | 38.8 µM
3 | Nc1ncnc2c1nc(Cl)n2C1OC(CO)C(O)C1O (centres undefined) |  | > 94.7 µM |  | > 25.5 µM |  | > 100 µM |  | > 100 µM |  | > 100 µM |  | > 93.3 µM |  | > 100 µM |  | 3.97 µM
4 | O=c1cccccc1[O-].O=c1cccccc1[O-].O=c1cccccc1[O-].[Sm+3] | 29.1 µM | > 100 µM |  | > 100 µM |  | > 100 µM |  |  |  |  |  |  |  |  |  | > 100 µM
5 | COc1cc(/C=C2\C(=O)N(C)c3ccccc32)cc(OC)c1OC | 19.7 µM | > 100 µM | 5.42 µM | 87.9 µM | 5.02 µM | > 100 µM | 14.2 µM | 68.4 µM | 0.793 µM | > 100 µM |  |  | 20.3 µM | > 100 µM | 7.26 µM | > 100 µM
6 | COc1ccc(Cc2nc3cc(OC)c(OC)cc3c(=O)[nH]2)cc1 | 7.97 µM | 39.7 µM | 6.53 µM | > 100 µM | 34.3 µM | > 100 µM | 9.83 µM | > 100 µM | 3.52 µM | > 45.6 µM | 9.38 µM | > 67 µM | 5.32 µM | > 47.5 µM | 1.78 µM | 4.8 µM
7 | COc1ccc(OCC(O)CN2CCN(c3ccc(Cl)cc3)CC2)cc1 (centres undefined) | > 100 µM | > 100 µM | > 100 µM | > 100 µM | > 100 µM | > 100 µM | 66.1 µM | > 100 µM | 80.6 µM | > 100 µM | > 100 µM | > 100 µM | > 100 µM | > 100 µM | > 100 µM | > 100 µM
8 | NC(=O)c1ncn(C2OC(CO)C(O)C2O)c1N (centres undefined) | > 100 µM | > 100 µM |  |  |  |  | > 100 µM | > 100 µM | > 100 µM | > 100 µM | 72.2 µM | > 100 µM | > 100 µM | > 100 µM |  | 
9 | COC(=O)[C@]1(C)CCC[C@]2(C)[C@@H]1CCC13C[C@@H](C=CO1)[C@@H](C)CC32O (some centres undefined) | 0.0516 µM | > 100 µM |  |  | 36.7 µM | > 100 µM | 65.9 µM | > 100 µM | > 100 µM | > 100 µM | 19.9 µM | 43.5 µM | 25.7 µM | > 100 µM | 45.4 µM | > 100 µM
10 | c1cncc(C2ONC3=NCCN32)c1 (centres undefined) | 28.9 µM | > 100 µM | 21 µM | 56.6 µM | 35.6 µM | > 100 µM | 32.3 µM | > 100 µM | 21.7 µM | > 100 µM | 15.8 µM | > 100 µM | 17.5 µM | > 100 µM |  | 
11 | Clc1ccc2c(NCCCN3CCN(c4nc(N5CCOCC5)nc5ccccc45)CC3)ccnc2c1 | 1.68 µM | 3.14 µM | 1.8 µM | 5.73 µM | 0.402 µM | 3.75 µM |  |  | 2.21 µM | 5.51 µM |  |  |  |  | 1.35 µM | 3.95 µM
12 | O=C(/C=C(\[O-])c1ccccc1)CCCCCCC(=O)/C=C(\[O-])c1ccccc1.O=C(/C=C(\[O-])c1ccccc1)CCCCCCC(=O)/C=C(\[O-])c1ccccc1.O=C(/C=C(\[O-])c1ccccc1)CCCCCCC(=O)/C=C(\[O-])c1ccccc1.[Nd+3].[Nd+3] | > 50 µM | > 50 µM |  |  | > 50 µM | > 50 µM |  |  | > 50 µM | > 50 µM |  |  |  |  | 3.05 µM | > 50 µM
13 | COc1ccc(-c2cc(-c3ccccc3)nc(NCCNc3ccnc4cc(Cl)ccc34)n2)cc1 | 1.86 µM | 3.33 µM | 0.306 µM | 1.21 µM | 0.323 µM | 1.03 µM | 1.81 µM | 3.49 µM | 1.78 µM | 3.62 µM | 1.77 µM | 3.28 µM | 1.53 µM | 3.42 µM | 1.72 µM | 3.62 µM
14 | COc1ccc(/C=C/C(C)=N/OCC(=O)Nc2ccc(Cl)cc2)cc1 | 3.16 µM | 13.4 µM | 2.41 µM | 29.9 µM | 2.42 µM | 17.2 µM | 1.76 µM | 8.99 µM | 4.2 µM | 49.4 µM | 4.11 µM | 78.6 µM | 2.3 µM | 18.8 µM | 2.55 µM | 10.5 µM
15 | Fc1ccc(-c2nn3c(COc4ccc(Cl)cc4)nnc3s2)cc1Oc1ccccc1 | 22.5 µM | > 55.5 µM | 22.4 µM | 74.4 µM | 42.1 µM | > 100 µM | 16.4 µM | 35.8 µM | 20 µM | 54.1 µM | 48.5 µM | > 100 µM | 21.9 µM | > 48.3 µM | > 100 µM | > 100 µM
16 | COc1cc(N(CCC#N)CCC#N)ccc1/C(N=Nc1ccc(C(=O)O)cc1)=N/NC(=O)c1cc(Br)ccc1O | 85.8 µg/mL | > 150 µg/mL | 82.4 µg/mL | > 150 µg/mL | > 150 µg/mL | > 150 µg/mL | 72.7 µg/mL | > 150 µg/mL | 29.9 µg/mL | 119 µg/mL | > 150 µg/mL | > 150 µg/mL | 57.3 µg/mL | > 150 µg/mL | 55.4 µg/mL | > 150 µg/mL

Reference: PubChem BioAssay (NCI)
